The subject of this experiment is refractory or relapsed diffuse large B-Cell lymphoma (DLBCL) patients. The experiment can be described thus: Clinical trial of lenalidomide in refractory or relapsed DLBCL patients: best response, PFS, OS. The experiment is classed as in vivo, human. The text has this:
A clinical trial was formed with four arms, each arm containing 25 patients. One arm contained patients classified as presenting germinal center B-cell-like DLBCL subtypes receiving lenalidomide, a second arm contained patients classified as presenting germinal center B-cell-like DLBCL subtypes receiving another therapy selected by the investigator, a third arm contained patients classified as presenting activated B-cell-like DLBCL subtypes receiving lenalidomide, and a fourth arm contained patients classified as presenting activated B-cell-like DLBCL subtypes receiving another therapy selected by the investigator. The patients in the four arms of the clinical trial received treatment until disease progression.
For purposes of this exploratory analysis, a subset of the clinical data associated to each patient comprised the therapy arm, Revlimid (REV) or control drug (CON), and their corresponding response to the drug in both categorical variable {complete response (CR), partial response (PR), establish disease (SD), progression disease (PD) and Death} and continuous variables as progression free survival (PFS) and overall (OS), unit weeks. It also includes the predicted DLBCL sub-type (ABC/GCB) and other demographic data. […]

Where “and” joins values, the source holds several entries; their conditions need not be identical. Equal values may be shown once.

Turning to `Nc1cccc2c1CN(C1CCC(=O)NC1=O)C2=O` (centres unmarked) [lenalidomide, 3-(4-amino-1-oxo-1,3-dihydro-isoindol-2-yl)-piperidine-2,6-dione], the “progression free survival (PFS)” value was 27 weeks and 31.9 weeks and 32.4 weeks and 85.3 weeks (individual Revlimid-arm DLBCL patients whose baseline FF profile had a non-zero estimated proportion of NK-cells); < 3 weeks (one lenalidomide-treated DLBCL patient with low B aIgM proportion who died shortly after starting treatment).

(Values after patent US20160312292A1, “METHODS FOR TREATING HEMATOLOGICAL CANCERS AND THE USE OF BIOMARKERS AS A PREDICTOR OF CLINICAL SENSITIVITY TO IMMUNODULATORY THERAPIES” (CELGENE CORPORATION, priority 2013, published 2016).)
